{"source": "ChEMBL document CHEMBL6071128", "about": "“Chalcone-Monoterpene Derivatives from the Buds of Cleistocalyx operculatus and Their Potential as Protein Tyrosine Phosphatase 1B Inhibitors” (J Nat Prod, 2024)", "key": {"[1]": {"target": "T1, Tyrosine-protein phosphatase non-receptor type 1 (Homo sapiens, UniProt P18031)", "T1 sequence (P18031 whole entry)": "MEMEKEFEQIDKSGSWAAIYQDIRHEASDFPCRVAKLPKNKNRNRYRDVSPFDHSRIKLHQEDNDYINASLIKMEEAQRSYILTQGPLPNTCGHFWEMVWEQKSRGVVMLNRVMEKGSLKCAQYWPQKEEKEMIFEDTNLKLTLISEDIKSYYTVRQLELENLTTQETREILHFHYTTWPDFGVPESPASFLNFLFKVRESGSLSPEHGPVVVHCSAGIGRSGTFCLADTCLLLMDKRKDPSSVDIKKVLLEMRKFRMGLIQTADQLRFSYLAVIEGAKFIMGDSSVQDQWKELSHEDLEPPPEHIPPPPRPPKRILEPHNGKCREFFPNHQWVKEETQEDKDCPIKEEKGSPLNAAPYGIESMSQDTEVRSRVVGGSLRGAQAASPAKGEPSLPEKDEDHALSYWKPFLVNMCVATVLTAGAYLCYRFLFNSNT", "description": "Binding affinity to human recombinant PTP1B (1 to 322 residues) extracted from Escherichia coli assessed as inhibition constant using p-nitrophenyl phosphate as substrate preincubated for 2 mins followed by substrate addition and measured after 15 mins by absorbance based analysis"}, "[2]": {"target": "T1, Tyrosine-protein phosphatase non-receptor type 1", "remark": "listed apart in the source", "description": "Inhibition of human recombinant PTP1B (1 to 322 residues) extracted from Escherichia coli using p-nitrophenyl phosphate as substrate incubated for 30 mins by absorbance based analysis"}}, "note": "pIC50, pKi: −log10 of the molar value.", "data": [{"compound": "COc1c(C)c(O)c(C=O)c(O)c1C(=O)[C@@H]1CC(CCC=C(C)C)=CC[C@H]1c1ccccc1", "values": [{"measurement": "pKi", "setting": "[1]", "value": 5.47}, {"measurement": "pIC50", "setting": "[2]", "value": 5.85}]}, {"compound": "COc1c(C)c(O)c(C=O)c(O)c1C(=O)[C@H]1CC(CCC=C(C)C)=CC[C@@H]1c1ccccc1", "values": [{"measurement": "pKi", "setting": "[1]", "value": 5.23}, {"measurement": "pIC50", "setting": "[2]", "value": 5.96}]}, {"compound": "CC1=C2O[C@]34OC(c5ccccc5)CC(O)=C3C(=O)C(C)(C)C(=O)[C@]4(C)CC2=C(O)C(C(=O)/C=C/c2ccccc2)C1=O", "note": "(some centres not stated)", "values": [{"measurement": "pKi", "setting": "[1]", "value": 5.28}, {"measurement": "pIC50", "setting": "[2]", "value": 5.82}]}, {"compound": "COc1c(C)c(O)c(C=O)c(O)c1C(=O)/C=C/c1ccccc1", "values": [{"measurement": "pIC50", "setting": "[2]", "value": 5.41}]}]}
